Assay results: patent publication US9017938B2, “Use of microrna-199b-5p in medical and diagnostic field” (Advanced Accelerator Applications, priority 2009, dated 2015)

Key:
D283MED cells = assay: Proliferation assay MTS, D283MED; assay type: cell-based, human; settings: transient transfection vs mock-transfected cells
Procedure: Cell proliferation was determined using the CellTiter96 AQueous Non-Radioactive Cell Proliferation Assay Kit (Promega Madison, Wis.). The cells were seeded into 96-well plates at a density of 1×10^3 cells/well in EMEM without or with FBS. After 0, 24, 48 and 72 h, MTS ([3-(4,5-dimethylthiazol-2-yl)-5-(3-carboxymethoxyphenyl)-2-(4-sulfophenyl)-2H-tetrazolium]) and PMS (phenazine methosulfate) were added to each well and after 4 h the absorbance of each well was measured at 490 nm (OD490) using Multilabel counter Victor^3 (Perkin Elmer). Each condition was performed with five wells and each experiment was repeated twice.

[1] = tested on: Daoy cell side population; assay: Side population FACS (Hoechst 33342 exclusion); assay type: cell-based, human
Procedure: (§1) The flow cytometry analysis of S-phase fractions and cell-cycle kinetics were carried out using a FACSCalibur (Becton Dickinson, San Jose, Calif.) using CELL Quest version 3.3 software. The CD133 studies were carried out using the same instrument, with antibodies from Miltenyi Biotec (Auburn, Calif.), according to the manufacturer instructions. In brief, the cells were blocked in Fc receptor blocking reagent and incubated with an anti-CD133/1 (AC133)-phycoerythrin antibody (Miltenyi Biotec), for 10 min in the dark at 4° C. The cells were then washed and resuspended in PBS. Cells expressing higher levels of CD133 than the immunoglobulin G (IgG) controls were considered positive. For analyses of the side populations, cells […] were incubated with Hoechst 33342 (5 μmol/L; Sigma) for 90 min at 37° C. in EMEM containing 2% FBS. To ensure the correct identification of the side population cells, the cells were incubated as above with the addition of 50 μM verapamil (Sigma).

CD133+ Daoy cells = assay: CD133 FACS analysis; assay type: cell-based, human
Procedure: as §1

Daoy cells [2] = assay: s.c. flank xenograft with bioluminescence imaging; assay type: in vivo, athymic nude/nude mice
Procedure: Stable Daoy cell clones were generated by transfecting a luciferase-expressing vector (the firefly luciferase gene cloned in the plentiV5 vector; Invitrogen) into the stable 199bSC1 clone or into the control empty-vector clone. Then 100,000 viable 199b-Luc1 and Ctl-Luc-4 cells were mixed with a 1:1 PBS:matrigel solution (BD Biosciences, San Jose, Calif.). Six-week-old female athymic mice were anesthetised using avertin (Sigma) as a 3% solution in tert-amyl alcohol (Fisher), at a dose of 3 mg per 10 g body weight. The mice were injected s.c. with a total volume of 0.1 mL of matrigel PBS cell suspension, into each flank. The mice were imaged after the implantation of the cells, with tumor growth monitored by weekly bioluminescence acquisitions (BLI) using an MS 3D Illumina Imaging System (Xenogen Corp. Alameda, Calif.). For the acquisitions, the mice were […] with 100 μL D-luciferin (15 mg/mL stock) per 10 g body weight, and imaged for 30 s, 10 min after luciferin injection; four acquisitions per mouse were made (ventral, dorsal and each flank). To quantify the bioluminescence, the integrated fluxes of photons (photons per s) within each area of interest were determined using the Living Images Software Package 3.0 (Xenogen-Caliper). The emission data from the start of tumor growth were collected for at least 6 weeks, and then were normalized to the bioluminescence on the injection day. Calliper measurements of tumor sizes were made weekly, along the long and short axes, and estimations of their volumes were made using the formula: width2×length×0.52.

Daoy cells [3] = assay: Soft-agar colony formation assay; assay type: cell-based, human; settings: stable 199bSC1 clone vs empty-vector clone
Procedure: Daoy cells and the stable 199b clone were seeded in 1 ml EMEM supplemented with 2% FBS, containing 0.3% agarose. Cultures were maintained for two weeks and refreshed with EMEM supplemented with 2% FBS twice per week. Colonies of more than 100 μm in diameter were counted under a Leica (Nussloch, Germany) DC500 compound microscope.

Daoy cells [4] = assay: In-vitro cell-motility assay (Boyden chamber); assay type: cell-based, human; settings: 199bSC1 vs empty vector control, 0.5% FBS chemoattractant
Procedure: The control DAOY cell line and the stable DAOY-199bSC1 clone were used in the ‘cell-motility’ assays. Cell migration assays were performed with 8-μm pore size Transwells (Costar). The cells were suspended by trypsinization, washed, and resuspended in 100 μl serum-free DMEM containing 0.1% BSA (5×10^4 cells) and placed in the upper chamber of the Transwells. The lower chamber was filled with 600 μl serum-free DMEM supplemented with 0.5% FBS, as the chemo-attractor. The cells were allowed to migrate for 1 h at 37° C. Cells migrating to the lower side of the polycarbonate membrane were fixed with 2.5% glutaraldehyde and stained with Hematoxylin solution (Sigma). The cells were counted, and the analysis performed on three Transwells for each condition, and each experiment was repeated twice.

GSK3-β = assay: Western blotting of GSK3-β; assay type: cell-based, human; settings: stable 199bSC1 clone
Procedure: Thirty μg cytosolic or nuclear lysates were loaded onto 12% polyacrilamide gels, and blotted onto polyvinylidene difluoride membranes (PVDF; BioRad, Milan, Italy). The membranes were then incubated with anti-HES1 (kind gift of Dr. Tetsuo Sudo TORAY Industries, Tebiro Kamakura, Japan), a polyclonal rabbit antibody (1:500), an anti-GSK3-β (B&D Bioscience) monoclonal antibody (1:2500), an anti-c-Myc polyclonal rabbit antibody (1:200) (Santa Cruz Biotechnology, Santa Cruz, Calif., USA), an anti-GABRA6 antibody (Santa Cruz Biotechnology, Santa Cruz, USA) (1:200), an anti-MATH3 antibody (Santa Cruz Biotechnology, Santa Cruz, USA) (1:200) and an anti-cyclin D1 (1:200) polyclonal rabbit antibody (Cell Signaling). An anti-β-actin antibody (1:1.000) (Sigma) was used as the control for equal loading of cytosolic lysates and a polyclonal anti-β-laminin antibody (1:50) (Santa Cruz Biotechnology, Santa Cruz, Calif., USA) for equal loading of nuclear lysates.

Nanog 3′UTR = assay: Luciferase reporter assay, full-length 3′UTR; assay type: cell-based; settings: miR-199b-5p over-expression in Daoy cells
Procedure: (§2) To determine the activity of miR-199b-5p on repression of the luciferase-3′UTR fused constructs, the pREYZO-miR-199b-5p construct and the pRL-CMV-3′UTR target construct were co-transfected into HEK293 cells at a ratio of 10:1, using the Polyfect reagent (Qiagen) together with the pGL3 basic vector, in the absence and presence of 2-OM (400 nM). Luciferase activities were analysed using a Dual Luciferase Reporter Assay system (Promega, Madison, Wis.).

NHLH2 3′UTR = assay: Luciferase reporter assay, full-length 3′UTR; assay type: cell-based; settings: miR-199b-5p over-expression in Daoy cells
Procedure: as §2

cyclin L1 3′UTR = assay: Luciferase reporter assay, full-length 3′UTR; assay type: cell-based; settings: miR-199b-5p over-expression in Daoy cells
Procedure: as §2

With “miR-199b-5p: mature microRNA CCCAGUGUUUAGACUAUCUGUUC (SEQ ID NO:11); over-expressed from pre-miR-199b construct, e.g. stable Daoy clones 199bSC1, 199bMC1 (listed as RNA, chemistry not fully specified)” the proliferation (D283MED cells) was “decreased proliferation”, the “fraction of SP cells” value ([1]; stable 199bMC1 clone (Daoy cells 5.2%)) was 0.4% and the “fraction of SP cells” value ([1]; stable 199bSC1 clone (Daoy cells 5.2%)) was 0.2%. For the same substance, the “CD133+ cells” value (CD133+ Daoy cells; stable 199bMC1 clone (wild-type cells 14.8%)) was 6.5%, the “CD133+ cells” value (CD133+ Daoy cells; stable 199bSC1 clone (wild-type cells 14.8%)) was 2.4% and the “tumor volumes, control flanks vs miR-199b-5p flanks” value (Daoy cells [2]; 199b-Luc1 vs Ctl-Luc-4 Daoy clones) was “significant difference in tumor volumes”. The “mice with statistically significant difference in bioluminescence signal between control and miR-199b-5p sides” value (Daoy cells [2]; after nine weeks) was “four out of the five”, the tumors detectable macroscopically (Daoy cells [2]; s.c. injection of Daoy cells over-expressing miR-199b-5p, nine weeks (control cells 5/5)) was 3/5 and the “reduction in colony formation potential” value (Daoy cells [3]) was 80%. The cell motility (Daoy cells [4]) was “did not lead to a decrease in cell motility”, the GSK3-β protein levels (GSK3-β) was “did not show any significant reductions” and the “down-regulation of reporter carrying Nanog 3′UTR” value (Nanog 3′UTR) was “did not detect any down-regulatory effects”. For the same substance, the “down-regulation of reporter carrying NHLH2 3′UTR” value (NHLH2 3′UTR) was “did not detect any down-regulatory effects” and the “down-regulation of reporter carrying cyclin L1 3′UTR” value (cyclin L1 3′UTR) was “did not detect any down-regulatory effects”.
